Laboratory results: US20090170886A1 (Pfizer Inc, priority 2005, published 2009)
Read-outs that look alike come from different tables or passages of the source.

Biological target: T1, hAR (human androgen receptor, baculovirus/Sf9 generated extracts) (Homo sapiens, UniProt P10275)
T1 construct: made in house; host or cells: baculovirus/Sf9 insect cells (crude extract)
T1 sequence (P10275 1-920): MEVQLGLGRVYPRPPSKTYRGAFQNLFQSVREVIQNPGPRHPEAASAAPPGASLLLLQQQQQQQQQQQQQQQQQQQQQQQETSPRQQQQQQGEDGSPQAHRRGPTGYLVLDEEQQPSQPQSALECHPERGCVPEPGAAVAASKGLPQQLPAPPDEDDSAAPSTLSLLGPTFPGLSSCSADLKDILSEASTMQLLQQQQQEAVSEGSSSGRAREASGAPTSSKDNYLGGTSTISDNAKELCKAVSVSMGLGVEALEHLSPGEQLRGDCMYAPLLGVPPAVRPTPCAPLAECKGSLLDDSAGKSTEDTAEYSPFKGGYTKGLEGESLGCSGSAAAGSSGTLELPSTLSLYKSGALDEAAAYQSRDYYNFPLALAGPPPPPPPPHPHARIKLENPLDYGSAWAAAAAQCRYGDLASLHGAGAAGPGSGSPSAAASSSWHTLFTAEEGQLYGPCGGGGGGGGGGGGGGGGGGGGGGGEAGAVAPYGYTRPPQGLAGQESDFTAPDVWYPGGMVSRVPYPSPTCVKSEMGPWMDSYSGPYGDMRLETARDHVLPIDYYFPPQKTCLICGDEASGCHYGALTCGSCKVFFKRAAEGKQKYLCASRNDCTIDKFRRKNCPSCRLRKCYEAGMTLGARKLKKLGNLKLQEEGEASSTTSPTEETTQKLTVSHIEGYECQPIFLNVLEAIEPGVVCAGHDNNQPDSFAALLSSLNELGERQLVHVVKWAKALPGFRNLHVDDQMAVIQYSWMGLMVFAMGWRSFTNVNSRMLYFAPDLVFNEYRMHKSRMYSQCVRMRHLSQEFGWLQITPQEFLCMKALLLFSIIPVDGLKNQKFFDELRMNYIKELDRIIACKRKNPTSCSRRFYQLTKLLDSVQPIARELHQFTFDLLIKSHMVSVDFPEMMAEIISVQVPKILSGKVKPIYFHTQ
Assay: AR Binding Assay (competitive binding with 3H-DHT tracer)
Conditions: 1 nM 3H-DHT, one hour at 4° C., mean of multiple tests
In short: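 Compounds at decreasing concentrations were incubated with baculovirus/Sf9 hAR extract, hydroxylapatite and 1 nM ^3H-DHT for one hour at 4° C., then washed three times. The value is the compound concentration inhibiting half of maximum ^3H-DHT binding, reported as the mean of multiple tests.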

[1] = hAR extract, read-out: AR Binding IC50

SMILES	IC50 (AR Binding IC50, hAR extract)	IC50 [1]
CC(Oc1ccc(C#N)c(C(F)(F)F)c1)c1ccccc1 (racemic) [Example 1, 4-(1-Phenyl-ethoxy)-2-trifluoromethyl-benzonitrile]	10 nM	–
CCCC(Oc1ccc(C#N)c(C(F)(F)F)c1)c1cccc(O)c1 (racemic) [Example 14, 4-[1-(3-Hydroxyphenyl)butoxy]-2-(trifluoromethyl)benzonitrile]	18 nM	–
CCCC(Oc1ccc(C#N)c(C(F)(F)F)c1)c1cccc(O)c1 (single isomer, unassigned; (+)) [Example 15, (+)4-[1-(3-Hydroxyphenyl)butoxy]-2-(trifluoromethyl)benzonitrile]	20 nM	–
CC(C)CC(Oc1ccc(C#N)c(C(F)(F)F)c1)c1cccc(O)c1 (single isomer, unassigned; (+)) [Example 21, (+)4-[1-(3-Hydroxyphenyl)-3-methylbutoxy]-2-(trifluoromethyl)benzonitrile]	66 nM	–
CC(Oc1ccc(C#N)c(C(F)(F)F)c1)c1cncc(O)c1 (single isomer, unassigned; (+)) [Example 74, (+)4-[1-(5-Hydroxypyridin-3-yl)ethoxy]-2-(trifluoromethyl)benzonitrile]	–	35 nM
CC(Oc1ccc(C#N)c(C(F)(F)F)c1)c1cccc(O)c1 (single isomer, unassigned; (-)) [Example 9, (−)-4-[1-(3-Hydroxyphenyl)ethoxy]-2-(trifluoromethyl)benzonitrile]	56 nM	–
C=CCC(Oc1ccc(C#N)c(C(F)(F)F)c1)c1cccc(O)c1 (single isomer, unassigned; (-)) [Example 19, (−)4-{[1-(3-Hydroxyphenyl)but-3-enyl]oxy}-2-(trifluoromethyl)benzonitrile]	185 nM	–
N#Cc1ccc(OCc2cccc(O)c2)cc1C(F)(F)F [Example 6, 4-[(3-Hydroxybenzyl)oxy]-2-(trifluoromethyl)benzonitrile]	12 nM	–
CCC(Oc1ccc(C#N)c(C(F)(F)F)c1)c1ccccn1 (stereo not drawn) [Example 79, 4-(1-Pyridin^−2-yl-propoxy)-2-trifluoromethyl-benzonitrile]	148 nM	–
COc1cccc(C(C)Oc2ccc(C#N)c(C(F)(F)F)c2)n1 (stereo not drawn) [Example 80, 4-[1-(6-Methoxy-pyridin-2-yl)-ethoxy]-2-trifluoromethyl-benzonitrile]	–	120 nM
CC(C)CC(Oc1ccc(C#N)c(C(F)(F)F)c1)c1cccnc1 (stereo not drawn) [Example 88, 4-(3-Methyl-1-pyridin-3-yl-butoxy)-2-trifluoromethyl-benzonitrile]	218 nM	–
Cc1ccc(C(CC(C)C)Oc2ccc(C#N)c(C(F)(F)F)c2)cn1 (stereo not drawn) [Example 89, 4-[3-Methyl-1-(6-methyl-pyridin-3-yl)-butoxy]-2-trifluoromethyl-benzonitrile]	137 nM	–
